Data published in article PMC11259710, “Distinct roles of the major binding residues in the cation-binding pocket of the melibiose transporter MelB” (The Journal of Biological Chemistry, 2024).
Where two headings read alike, the source gives them in different places.

Columns and labels:
[1] = system: WT MelBSt expressed in E. coli DW2 cells; assay: [3H]melibiose transport assay in intact E. coli DW2 cells, CCCP effect, WT MelBSt; type: cell-based, Salmonella enterica serovar Typhimurium
Procedure: (§1) E. coli DW2 cells transformed with a given plasmid were grown in Luria-Bertani (LB) broth with 100 mg/L ampicillin in a 37 °C shaker. The overnight cultures were diluted by 5% to fresh LB broth with 0.5% glycerol and 100 mg/L ampicillin and shaken at 30 °C for 5 h. The cells were washed with 50-ml 100 mM KPi, pH 7.5 three times, followed by washing with the assay buffer (100 mM KPi, pH 7.5, 10 mM MgSO4). The cell pellets were resuspended and adjusted to A420 = 10 (∼0.7 mg proteins/ml) with the assay buffer. The transport assay was performed at 0.4 mM [^3H]melibiose (specific activity of 10 mCi/mmol) in the absence of Na^+ and Li^+ or the presence of Na^+ or Li^+ as described ([4], [35]) to test the three transport model coupling to H^+, Na^+, or Li^+, respectively. The transport time courses were carried out by quenching the cells at zero, 5 s, 10 s, 30 s, 1 m, 2 m, 5 m, 10 m, and 30 m by dilution and fast filtration. The filters were subjected to radioactivity measurements using a liquid scintillation counter.
(§2) The CCCP effect on the transport activity at varied pH conditions in the absence of Na^+ and Li^+ was conducted by incubating the extensively washed Na^+-free, Li^+-free cells with 10 μM CCCP for 10 min prior to the transport assay.
(§3) E. coli DW2 cells expressing the WT MelBSt, D55C, or D59C mutants were prepared as described above. […]

[2] = system: D55C MelBSt expressed in E. coli DW2 cells; assay: [3H]melibiose transport assay in intact E. coli DW2 cells, CCCP effect, D55C MelBSt; type: cell-based, Salmonella enterica serovar Typhimurium; settings: D55C mutant
Procedure: as §1, §2, §3

[3] = molecular target: T1, WT MelBSt (Salmonella typhimurium, UniProt P30878); settings: cited from earlier work
T1 construct: His10 (C); made in house; host or cells: E. coli DW2

[4] = molecular target: T2, D55C MelBSt mutant (Salmonella typhimurium, UniProt P30878, D55C); type: binding, Salmonella enterica serovar Typhimurium; settings: for Cation binding by ITC: 40 mM NaCl or LiCl titrant, absence or presence of saturating melibiose; for Kd: ITC 25 °C
T2 construct: His10 (C); made in house; host or cells: E. coli DW2
Procedure: All ITC ligand-binding assays were performed with the TA Instruments (Nano-ITC device) as described ([15]), which yields the exothermic binding as a positive peak. […] MelBSt protein samples were buffer-matched to the assay buffer by dialysis.
(§4) All samples were degassed using a TA Instruments Degassing Station (model 6326) for 15 min. During the titration, the heat changes were collected at 25 °C, and data processing was performed with the NanoAnalyze (version 3.7.5 software) provided with the instrument. The normalized heat changes were subtracted from the heat of dilution elicited by the last few injections, where no further binding occurred, and the corrected heat changes were plotted against the mole ratio of titrant versus titrand. The binding association constant (Ka) values were obtained by fitting the data using the one-site independent-binding model included in the NanoAnalyze software (version 3.7.5).

[5] = molecular target: T1, WT MelBSt; assay: ITC ligand-binding assay, purified WT MelBSt; design: species or system Salmonella enterica serovar Typhimurium; settings: for Kd: ITC, read-out: Kd of melibiose binding
Procedure: All ITC ligand-binding assays were performed with the TA Instruments (Nano-ITC device) as described ([15]), which yields the exothermic binding as a positive peak. In a typical experiment, the titrand (MelBSt) placed in the ITC Sample Cell was titrated with the specified titrant Na^+, Li^+, melibiose, or α-NPG (placed in the Syringe) in the assay buffer by an incremental injection of 2-μL aliquots at an interval of 300 s at a constant stirring rate of 250 rpm (nano-ITC). MelBSt protein samples were buffer-matched to the assay buffer by dialysis. For measuring Na^+ or Li^+ binding, 100 mM choline chloride was supplemented into the Na^+-free buffer.
as §4

[6] = molecular target: Asp59 (UniProt position 59, WDAINDPIMGW); assay: ITC; settings: cited from earlier work
[7] = 10 μM CCCP, all tested external pH conditions, zero, 2 m, 10 m
[8] = cells pre-incubated with 10 μM CCCP, 0.4 mM melibiose, no Na+ and Li+, pH 7.5
[9] = pH 7.5, 100 mM Na+ vs no Na+, from Kd values of ref [8]

Question: Which “CCCP effect on melibiose transport at varied external pH” value [1, 7] does the source give for `N#CC(C#N)=NNc1cccc(Cl)c1` [CCCP, carbonyl cyanide m-chlorophenylhydrazone] here?
Answer: The value was “completely abolished”.

Question: What about the “CCCP effect on H+-coupled melibiose transport activity” value [1, 8] of the same compound?
Answer: Its value is “completely inhibited”.

Question: And the “CCCP effect on melibiose transport at varied external pH” value [2, 7]?
Answer: The value was “completely abolished”.

Question: What about the “CCCP effect on H+-coupled melibiose transport activity” value [2, 8] of the same compound?
Answer: Its value is “completely inhibited”.

Question: For `[H+]` [H^+], which “absolute dissociation constant for H+ (pKa value)” value ([3]; absence of melibiose, ref [15]) is on record?
Answer: Its value is 6.25.

Question: What about the Kd ([3]; absence of melibiose, ref [15], read-out: absolute KD(H+)) of the same compound?
Answer: Its Kd is 0.56 µM.

Question: And the Cooperativity number ([3]; melibiose and H+, based on the effect of sugar on the H+ affinity, ref [15])?
Answer: The Cooperativity number was “less than 2”.

Question: And the “absolute dissociation constant for H+ (pKa value)” value ([3]; presence of melibiose, ref [15])?
Answer: Its value is 6.5.

Question: What about the Kd ([3]; presence of melibiose, ref [15], read-out: absolute KD(H+)) of the same compound?
Answer: The Kd was 0.26 µM.

Question: With `[Li+]` [Li^+] as the compound, how does the “Cooperativity number (ratio of Kd values of melibiose and cation in absence or presence of the other)” value ([3]; melibiose and Li+, ref [6]) read?
Answer: The value was ~5.

Question: And the “Cation binding by ITC” value [4]?
Answer: The value was “eliminated the binding”.

Question: Which Kd ([5]; pH 6.25, Na+-free buffer) does the source give for `OC[C@H]1O[C@H](OCC2O[C@@H](O)[C@H](O)[C@@H](O)[C@@H]2O)[C@H](O)[C@@H](O)[C@H]1O` (stereo partly drawn) [Melibiose, melibiose] here?
Answer: The Kd was 6190 ± 590 µM.

Question: What about the “Affinity change of melibiose with pH” value ([5]; pH 6.25 vs pH 8.5, no Na+) of the same compound?
Answer: The value was “+1.37-fold”.

Question: What about the “Affinity change of melibiose with Na+” value [5, 9] of the same compound?
Answer: Its value is “+8.51-fold”.

Question: What about the “Affinity change of melibiose with Na+” value ([5]; pH 7.5, 100 mM Na+ vs no Na+, from Kd values of ref [8], listed as melibiose) of the same compound?
Answer: Its value is 8.51 fold.

Question: What about the Kd ([5]; pH 8.5, Na+-free buffer) of the same compound?
Answer: The Kd was 8500 ± 210 µM.

Question: What about the Kd ([3]; WT MelBSt, pH 7.5, 100 mM Na+, ITC 25 °C, ref [8], read-out: Kd of melibiose binding) of the same compound?
Answer: Its Kd is 1090 ± 60 µM.

Question: What about the Kd ([3]; WT MelBSt, pH 7.5, no Na+, ITC 25 °C, ref [8], read-out: Kd of melibiose binding) of the same compound?
Answer: The Kd was 9280 ± 230 µM.

Question: And the “Affinity change of melibiose with Na+” value ([4]; pH 7.5, 100 mM Na+ vs no Na+)?
Answer: The value was “+1.14-fold”.

Question: And the Kd ([4]; pH 7.5, 100 mM Na+, read-out: Kd of melibiose binding)?
Answer: The Kd was 5090 ± 150 µM.

Question: And the Kd ([4]; pH 7.5, no Na+, read-out: Kd of melibiose binding)?
Answer: Its Kd is 5820 ± 460 µM.

Question: Which “Cooperativity number (ratio of Kd values of melibiose and cation in absence or presence of the other)” value ([3]; melibiose and Na+, ref [15]) does the source give for `[Na+]` [Na^+] here?
Answer: Its value is “approximately 8”.

Question: What about the “Cation binding by ITC” value [4] of the same compound?
Answer: Its value is “eliminated the binding”.

Question: Which “Affinity change of α-NPG with Na+” value [5, 9] does the source give for `O=[N+]([O-])c1ccc(O[C@H]2O[C@H](CO)[C@H](O)[C@H](O)[C@H]2O)cc1` [α-NPG, 4-nitrophenyl-α-D-galactopyranoside] here?
Answer: Its value is “+ 1.68-fold”.

Question: What about the Kd ([3]; WT MelBSt, pH 7.5, 100 mM Na+, ITC, ref [8], read-out: Kd of α-NPG binding) of the same compound?
Answer: Its Kd is 25.7 ± 4.42 µM.

Question: What about the Kd ([3]; WT MelBSt, pH 7.5, no Na+, ITC, ref [8], read-out: Kd of α-NPG binding) of the same compound?
Answer: The Kd was 43.2 ± 0.62 µM.

Question: And the Kd ([4]; pH 7.5, 100 mM Na+, read-out: Kd of α-NPG binding)?
Answer: Its Kd is 13.5 ± 1.38 µM.

Question: What about the Kd ([4]; pH 7.5, no Na+, read-out: Kd of α-NPG binding) of the same compound?
Answer: Its Kd is 15.1 ± 1.86 µM.

Question: With “Melibiose permease MelB (MelBSt) (Salmonella enterica serovar Typhimurium)” as the compound, how does the pKa ([6]; Melibiose present (per the Introduction). The Discussion sentence does not specify the sugar state.) read?
Answer: The pKa was “approximately 6.5”.

Question: And the pKa ([6]; No melibiose, no Na+/Li+ bound)?
Answer: The pKa was 6.25.
